pIC50: −log10 of the molar value. Where two headings read alike, the source gives them in different places.
What was measured:
Pim-2 = Pim-2 (Homo sapiens (Human), UniProt Q9P1W9); experiment: Pim enzyme assay (HTRF, phosphorylation of biotinylated-BAD (S112) peptide), Pim-2; assay type: biochemical
Procedure, shortened: (§1)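 Full-length human Pim-1 or Pim-2 with an N-terminal His6 tag, expressed in Sf9 or E. coli and purified as monomer. HTRF read-out: biotinylated BAD (S112) peptide phosphorylation detected with streptavidin-APC plus Eu-anti-phospho-BAD(S112) antibody, excitation 337 nm, emission 665 nm.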

[1] = tested on: KMS-12-BM myeloma cell line; experiment: Pim cell assay: phospho-BAD (S112) and total BAD in KMS-12-BM cells; assay type: cell-based; settings: 1 hour and 50 minutes incubation
Procedure, shortened: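 KMS-12-BM myeloma cells, after overnight culture, got a 10-point compound dose series (0.3% DMSO) for 1 h 50 min at 37 °C. Lysates measured for phospho-BAD (S112) and total BAD by MSD immunoassay; % phosphoprotein = 2×phospho/(phospho+total)×100.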

Pim-1 = Pim-1 (Homo sapiens (Human), UniProt P11309); experiment: Pim enzyme assay (HTRF, phosphorylation of biotinylated-BAD (S112) peptide), Pim-1; assay type: biochemical
Procedure, shortened: as §1

[2] = full length recombinant Pim-2, biotinylated-BAD (S112) peptide, HTRF, 96-well, read-out: Pim-2 IC50 IP
[3] = Homo sapiens, KMS-12-BM, read-out: KMS-12-BM IC50 IP
[4] = full length recombinant Pim-1, biotinylated-BAD (S112) peptide, HTRF, 96-well, read-out: Pim-1 IC50 IP
[5] = tris(2,2,2-trifluoroacetate), read-out: KMS-12-BM IC50 IP
[6] = full length recombinant Pim-2, biotinylated-BAD (S112) peptide, HTRF, read-out: Pim2_IC50
[7] = Homo sapiens, KMS-12-BM, read-out: KMS12_Cell_IC50
[8] = full length recombinant Pim-1, biotinylated-BAD (S112) peptide, HTRF, read-out: Pim_1_IC50

Sequence of Pim-1 (P11309 whole entry): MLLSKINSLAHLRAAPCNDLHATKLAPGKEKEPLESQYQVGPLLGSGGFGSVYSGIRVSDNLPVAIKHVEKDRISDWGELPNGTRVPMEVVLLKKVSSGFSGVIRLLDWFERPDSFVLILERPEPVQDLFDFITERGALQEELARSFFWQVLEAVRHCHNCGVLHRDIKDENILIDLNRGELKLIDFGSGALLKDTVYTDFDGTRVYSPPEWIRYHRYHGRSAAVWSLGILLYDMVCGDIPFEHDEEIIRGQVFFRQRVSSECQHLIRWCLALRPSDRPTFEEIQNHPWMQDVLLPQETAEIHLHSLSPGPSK
Sequence of Pim-2 (Q9P1W9 whole entry): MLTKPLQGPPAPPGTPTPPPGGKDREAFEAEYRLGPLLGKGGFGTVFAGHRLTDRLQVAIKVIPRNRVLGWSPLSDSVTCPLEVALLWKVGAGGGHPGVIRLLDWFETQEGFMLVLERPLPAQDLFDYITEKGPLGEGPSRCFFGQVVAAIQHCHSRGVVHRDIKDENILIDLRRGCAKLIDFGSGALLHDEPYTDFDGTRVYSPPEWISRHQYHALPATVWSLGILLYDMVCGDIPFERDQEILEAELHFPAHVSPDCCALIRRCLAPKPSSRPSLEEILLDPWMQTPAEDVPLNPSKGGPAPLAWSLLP

Row | pIC50 (Pim-2; [2]) | pIC50 [1, 3] | pIC50 (Pim-1; [4]) | SMILES | also measured
1 | 8.59 | 6.21 | 9.05 | N[C@H]1CCCN(c2ccncc2Nc2ncc3ccc(-c4ncccc4Cl)nn23)C1 [Example 78, (S)-N-(4-(3-aminopiperidin-1-yl)pyridin-3-yl)-2-(3-chloropyridin-2-yl)imidazo[1,5-b]pyridazin-7-amine] | 
2 | 7.46 | 5.01 | 8.07 | Cc1cc(N)cc(-c2ccncc2Nc2ncc3ccc(-c4c(F)cccc4F)nn23)c1 [Example 42, N-(4-(3-amino-5-methylphenyl)-3-pyridinyl)-2-(2,6-difluorophenyl)imidazo[1,5-b]pyridazin-7-amine] | 
3 | 8.49 | 6.01 | 9.10 | N[C@H]1C[C@@H](F)CN(c2ccncc2Nc2ncc3ccc(-c4c(F)cccc4F)nn23)C1 [Example 48, N-(4-((3S,5R)-3-amino-5-fluoropiperidin-1-yl)pyridin-3-yl)-2-(2,6-difluorophenyl)imidazo[1,5-b]pyridazin-7-amine tris(2,2,2-trifluoroacetate)] | 
4 | 10.00 | 7.06 | 10.00 | C[C@@H]1C[C@H](N)CN(c2ccncc2Nc2ncc3ccc(-c4cc(C(=O)NC5CC5)ccc4F)nn23)C1 [Example 72, 3-(7-((4-((3S,5R)-3-amino-5-methyl-1-piperidinyl)-3-pyridinyl)amino)imidazo[1,5-b]pyridazin-2-yl)-N-cyclopropyl-4-fluorobenzamide] | 
5 | 8.89 | 6.63 | 9.52 | C[C@@H]1C[C@H](N)CN(c2ccncc2Nc2ncc3ccc(-c4ccccn4)nn23)C1 (relative stereo) [Example 63, N-(4-((cis)-3-amino-5-methylpiperidin-1-yl)pyridin-3-yl)-2-(pyridin-2-yl)imidazo[1,5-b]pyridazin-7-amine] | 

Second part, the compound before the results:

Row | SMILES | pIC50 (Pim-2; [2]) | pIC50 [1, 3] | pIC50 (Pim-1; [4]) | also measured
6 | N[C@H]1C[C@@H](C(F)(F)F)CN(c2ccncc2Nc2ncc3ccc(-c4c(F)cccc4F)nn23)C1 (racemic) [Example 60, rac-N-(4-((cis)-3-amino-5-(trifluoromethyl)piperidin-1-yl)pyridin-3-yl)-2-(2,6-difluorophenyl)imidazo[1,5-b]pyridazin-7-amine bis(2,2,2-trifluoroacetate)] | 9.52 | 6.94 | 10.00 | 
7 | O[C@H]1CCN(c2ccncc2Nc2ncc3ccc(-c4c(F)cccc4F)nn23)C[C@@H]1O (mixture of isomers) [Example 25, (3S,4S)-1-(3-((2-(2,6-difluorophenyl)imidazo[1,5-b]pyridazin-7-yl)amino)-4-pyridinyl)-3,4-piperidinediol and (3R,4R)-1-(3-((2-(2,6-difluorophenyl)imidazo[1,5-b]pyridazin-7-yl)amino)-4-pyridinyl)-3,4-piperidinediol (1/1)] |  |  |  | pIC50 (Pim-2; read-out: Pim2_IC50): 8.10; pIC50 ([1]; read-out: KMS12_Cell_IC50): 6.11; pIC50 (Pim-1; read-out: Pim_1_IC50): 8.70
8 | C[C@@H]1C[C@H](N)CN(c2ccncc2Nc2nnc3ccc(-c4c(F)cccc4F)nn23)C1 [Example 90, N-(4-((3S,5R)-3-amino-5-methylpiperidin-1-yl)pyridin-3-yl)-6-(2,6-difluorophenyl)-[1,2,4]triazolo[4,3-b]pyridazin-3-amine bis(2,2,2-trifluoroacetate)] |  | 6.29 | 9.00 | pIC50 (Pim-2; read-out: Pim-2 IC50 IP): 8.41
9 | C[C@@H]1CCN(c2ccncc2Nc2ncc3ccc(-c4c(F)cccc4F)nn23)C[C@H]1N (single isomer, unassigned) [Example 101, N-(4-((trans)-3-amino-4-methylpiperidin-1-yl)pyridin-3-yl)-2-(2,6-difluorophenyl)imidazo[1,5-b]pyridazin-7-amine tris(2,2,2-trifluoroacetate)] | 7.49 |  | 8.12 | pIC50 [1, 5]: 5.16
10 | C[C@H]1CN(c2ccncc2Nc2ncc3ccc(-c4ncccc4F)nn23)C[C@@H](N)[C@@H]1O [Example 66, (3R,4R,5S)-3-amino-1-(3-((2-(3-fluoropyridin-2-yl)imidazo[1,5-b]pyridazin-7-yl)amino)pyridin-4-yl)-5-methylpiperidin-4-ol] | 8.89 | 6.94 | 9.52 | 
11 | C[C@H]1CCN(c2ccncc2Nc2ncc3ccc(-c4c(F)cccc4F)nn23)C[C@H]1N (single isomer, unassigned) [Example 99, N-(4-((cis)-3-amino-4-methylpiperidin-1-yl)pyridin-3-yl)-2-(2,6-difluorophenyl)imidazo[1,5-b]pyridazin-7-amine bis(2,2,2-trifluoroacetate)] | 8.80 |  | 9.52 | pIC50 ([1]; bis(2,2,2-trifluoroacetate), read-out: KMS-12-BM IC50 IP): 5.57
12 | N[C@H]1CCCN(c2ccncc2Nc2ncc3ccc(-c4ccccc4Cl)nn23)C1 [Example 4, N-(4-((3S)-3-amino-1-piperidinyl)-3-pyridinyl)-2-(2-chlorophenyl)imidazo[1,5-b]pyridazin-7-amine] |  |  |  | pIC50 (Pim-2; [6]): 8.52; pIC50 [1, 7]: 5.57; pIC50 (Pim-1; [8]): 9.05
13 | N[C@H]1CCCN(c2ccncc2Nc2ncc3ccc(-c4c(F)cccc4F)nn23)C1 [Example 1, N-(4-((3S)-3-amino-1-piperidinyl)-3-pyridinyl)-2-(2,6-difluorophenyl)imidazo[1,5-b]pyridazin-7-amine tris(2,2,2-trifluoroacetate)] |  |  |  | pIC50 (Pim-2; read-out: Pim2_IC50): 9.30; pIC50 [1, 7]: 6.37; pIC50 (Pim-1; [8]): 10.10
14 | C[C@@H]1CCN(c2ccncc2Nc2ncc3ccc(-c4c(F)cccc4F)nn23)C[C@H]1N (single isomer, unassigned) [Example 100, N-(4-((trans)-3-amino-4-methylpiperidin-1-yl)pyridin-3-yl)-2-(2,6-difluorophenyl)imidazo[1,5-b]pyridazin-7-amine tris(2,2,2-trifluoroacetate)] |  |  |  | pIC50 (Pim-2; read-out: Pim-2 IC50 IP): 9.70; pIC50 [1, 5]: 7.11; pIC50 (Pim-1; read-out: Pim-1 IC50 IP): > 10.00
15 | Fc1cccc(F)c1-c1ccc2cnc(Nc3cnccc3N3CCNCC3)n2n1 [Example 2, 2-(2,6-difluorophenyl)-N-(4-(1-piperazinyl)-3-pyridinyl)imidazo[1,5-b]pyridazin-7-amine] |  |  |  | pIC50 (Pim-2; [6]): 6.90; pIC50 [1, 7]: < 4.51; pIC50 (Pim-1; [8]): 7.85
16 | N[C@H]1CCCN(c2ccncc2Nc2ncc3ccc(-c4ccc(Cl)cc4Cl)nn23)C1 [Example 11, N-(4-((3S)-3-amino-1-piperidinyl)-3-pyridinyl)-2-(2,4-dichlorophenyl)imidazo[1,5-b]pyridazin-7-amine] |  |  |  | pIC50 (Pim-2; [6]): 7.96; pIC50 [1, 7]: 5.30; pIC50 (Pim-1; [8]): 8.70
17 | Fc1cccc(F)c1-c1ccc2cnc(Nc3cnccc3OC3CNC3)n2n1 [Example 9, N-(4-(3-azetidinyloxy)-3-pyridinyl)-2-(2,6-difluorophenyl)imidazo[1,5-b]pyridazin-7-amine] |  |  |  | pIC50 (Pim-2; [6]): 7.00; pIC50 [1, 7]: 4.99; pIC50 (Pim-1; [8]): 7.85
18 | C[C@@H]1C[C@H](N)CN(c2ccncc2Nc2ncc3ccc(-c4nccs4)nn23)C1 [Example 62, N-(4-((3S,5R)-3-amino-5-methylpiperidin-1-yl)pyridin-3-yl)-2-(thiazol-2-yl)imidazo[1,5-b]pyridazin-7-amine bis(2,2,2-trifluoroacetate)] |  | 6.74 | 9.52 | pIC50 (Pim-2; read-out: Pim-2 IC50 IP): 9.40

From US9187486B2 (AMGEN INC., priority 2011, dated 2015)
